Reference: ChEMBL document CHEMBL2034942, “Trigoxyphins H and I: two new daphnane diterpenoids from Trigonostemon xyphophylloides” (Bioorg Med Chem Lett, 2012)
pIC50: −log10 of the molar value.

Legend:
[1] = Cytotoxicity against human SPC-A1 cells after 48 hrs by MTT assay; assay type: functional, cell-based; conditions: SPCA1, 48 h
Bel-7402 = experiment: Cytotoxicity against human Bel7402 cells after 48 hrs by MTT assay; assay type: functional, cell-based; conditions: Bel-7402, 48 h

| Compound | pIC50 [1] | pIC50 (Bel-7402) |
| --- | --- | --- |
| C=C(C)[C@@]12OC3(c4ccccc4)O[C@@H]1[C@@H]1[C@@H]4O[C@]4(C)[C@@H](O)[C@@H]4C(=O)C(C)=C[C@@H]4[C@@]1(O3)[C@H](C)[C@@H]2OC(=O)c1ccccc1 (relative stereo) | 4.43 | 4.79 |
| C=C(C)[C@@]12OC3(c4ccccc4)O[C@@H]1[C@@H]1[C@H](OC(C)=O)[C@@](C)(OC(=O)c4ccccc4)[C@@H](OC(C)=O)[C@@]4(O)[C@@H](C[C@H](C)[C@@H]4OC(C)=O)[C@@]1(O3)[C@H](C)[C@@H]2OC(C)=O [TRIGOXYPHIN I] | 4.96 | 5.06 |
